Experimental data: US12358919B2, “Antibacterial compounds” (Universita' degli Studi di Siena, priority 2019, dated 2025)
Read-outs that look alike come from different tables or passages of the source. Where a SMILES comes first, the peptide text is derived from it. Bridges are numbered along the chain shown (N, C = ends). [ ]: non-standard residue; d: D form. The star is where a group is joined. X1 = CC[C@H](C)CCCCC(=O)*; Dab = NCC[C@H](N)C(=O)O

Tests used:
[1] = test system: Acinetobacter baumannii ATCC 17978; experiment: microbe, parasite or virus in culture; format: cell-based; settings: for Potentiation fold: ratio MICcompound/MICcompound+polymyxin E; for MIC in presence of colistin: with 0.25xMIC polymyxin E1 (0.25 mg/L); for MIC: Acinetobacter baumannii, ATCC17978
Experimental: (§1) Growth inhibition or killing of bacteria was investigated using conventional methods widely described in the scientific literature. Parameters such as the Minimum Inhibitory Concentration (MIC) were determined as described in Clinical Laboratory Standard Institute (CLSI) document M07 “Methods for Dilution Antimicrobial Susceptibility Tests for Bacteria That Grow Aerobically, 11th Edition” (2018). Synergistic activity of the compounds described in the present specification were determined by measuring the variation of the MIC's compound in the absence and presence of a sub-inhibitory concentration of a suitable antibacterial agent, such as polymyxin E1. Furthermore, the Fractional Inhibitory Concentrations (FICs) were measured using a chequerboard analysis to determine the average FIC index (FICI), whose value is known to characterize the interaction between two compounds and/or drugs (≤0.5, synergistic interaction; >0.5 and <2, no interaction, additive effect; ≥2, antagonistic interaction). Furthermore, the selectivity of the compounds was investigated by measuring their cytotoxic effect on mammalian cell lines (e.g. HeLa cells).
(§2) Several methods were used to investigate the synergistic activity of the compounds, including (a) the determination of the MIC in the presence of a sub-inhibitory concentration of a suitable antibacterial agent, (b) the determination of the average FICI using a chequerboard analysis and (c) the time-kill curve analysis of a suitable agent (at a sub-inhibitory concentration) in the absence and presence of the pyrazolo[4,3-b]pyridin-6-carboxamide compound at a fixed concentration of 2 or 8 mg/L.
(§3) The MIC of the compound was determined alone and in the presence of a fixed and sub-inhibitory concentration of a suitable antibacterial agent of the polymyxin class, such as polymyxin E1 (colistin). The potentiation fold was computed as the ratio MICcompound/MICcompound+polymyxin E. Tested organisms included Escherichia coli CCUG^TKlebsiella pneumoniae ATCC 13833 and Acinetobacter baumannii ATCC 17978, which show a colistin MIC of 0.5, 0.5 and 1 mg/L, respectively.

Escherichia coli CCUG^T = experiment: microbe, parasite or virus in culture; format: cell-based; settings: for Potentiation fold: ratio MICcompound/MICcompound+polymyxin E; for MIC in presence of colistin: with 0.25xMIC polymyxin E1 (0.12 mg/L); for MIC: Escherichia coli
Experimental: as §1, §2, §3

[2] = test system: Klebsiella pneumoniae ATCC 13833; experiment: microbe, parasite or virus in culture; format: cell-based; settings: for Potentiation fold: ratio MICcompound/MICcompound+polymyxin E; for MIC in presence of colistin: with 0.25xMIC polymyxin E1 (0.12 mg/L); for MIC: Klebsiella pneumoniae, ATCC13833
Experimental: as §1, §2, §3

K. pneumoniae ATCC 13833 = experiment: Chequerboard analysis with polymyxin E1 (average FIC index); format: cell-based, Klebsiella pneumoniae; settings: compound + polymyxin E1
E. coli CCUG^T = experiment: as above; format: cell-based, Escherichia coli; settings: compound + polymyxin E1
[3] = test system: Bacillus subtilis ATCC 6633; experiment: MIC, broth microdilution (direct antibacterial activity); format: cell-based
Experimental: as §1
(§4) The MIC values were determined using the broth microdilution method as described in document M07 using Mueller-Hinton broth as culture medium and an initial bacterial inoculum size of 5×10^5 CFU/mL, with a final volume of 100 μL per well in a 96-well microplate. Bacterial strains were Bacillus subtilis ATCC 6633, Enterococcus faecalis ATCC 29212, Streptococcus pyogenes ATCC 12344 and Staphylococcus aureus ATCC 25923. The tested compound concentration ranged from 512 to 0.25 mg/L. Plates were incubated for 18-24 hours at 35±2° C. prior to results analysis.

[4] = test system: Enterococcus faecalis ATCC 29212; experiment: as above; format: cell-based
Experimental: as §1, §4

[5] = test system: Staphylococcus aureus ATCC 25923; experiment: as above; format: cell-based
Experimental: as §1, §4

[6] = test system: Streptococcus pyogenes ATCC 12344; experiment: as above; format: cell-based
Experimental: as §1, §4

A. baumannii ATCC 17978 = experiment: Chequerboard analysis with polymyxin E1 (average FIC index); format: cell-based, Acinetobacter baumannii; settings: compound + polymyxin E1
K. pneumoniae SI-4B = experiment: as above; format: cell-based, Klebsiella pneumoniae; settings: K. pneumoniae SI-4B (colistin-resistant); compound + polymyxin E1
[7] = test system: polymyxin E1-resistant Acinetobacter baumannii (strain N50) clinical isolate; format: cell-based; settings: A. baumannii N50; colistin alone
Experimental: as §1
“Chequerboard” method was used to further investigate the synergistic activity of pyrazolo[4,3-b]pyridin-6-carboxamides when this compounds are combined with polymyxin E1. […]

[8] = test system: Acinetobacter baumannii (N50 strain), multidrug-resistant clinical isolate resistant to polymyxin E1; experiment: Time-kill curve analysis (bactericidal activity); format: cell-based; settings: polymyxin E1 2 mg/L alone; inoculum 10^5 CFU/mL
Experimental: FIG. 1: bactericidal activity on Acinetobacter baumannii (N50 strain) of polymyxin E1, 2 mg/L (square); polymyxin E1, 2 mg/L+compound Ib 32 mg/L (triangles); control (circles).
as §2
The kinetics of bacterial killing offers an additional mean to characterize the antibacterial activity of compounds, also in combination with other antimicrobial agents. Compounds or a combination thereof are defined as bactericides when the viable bacterial load is decreased by at least 3 log10 (EUCAST, cit.).
This analysis was carried with a multidrug-resistant Acinetobacter baumannii clinical isolate showing resistance to polymyxin E1. The time-kill curves were generated starting from a bacterial inoculum of 10^5 CFU/mL. Bacterial count was determined at several time intervals in the absence (control) or presence of 2 mg/L polymyxin E1 (corresponding to the resistance breakpoint, EUCAST, cit.) supplemented with 32 mg/L of compound Ib (FIG. 1).

[9] = A. baumannii ATCC 17978, compound alone, read-out: MIC
[10] = E. coli CCUG^T, compound alone, read-out: MIC
[11] = K. pneumoniae ATCC 13833, compound alone, read-out: MIC
[12] = ATCC6633, B. subtilis ATCC 6633, compound alone, 18-24 h, read-out: MIC
[13] = ATCC29212, E. faecalis ATCC 29212, compound alone, 18-24 h, read-out: MIC
[14] = ATCC25923, S. aureus ATCC 25923, compound alone, 18-24 h, read-out: MIC
[15] = ATCC12344, S. pyogenes ATCC 12344, compound alone, 18-24 h, read-out: MIC

Compound | Potentiation fold ([1]; A. baumannii ATCC 17978) | MIC in presence of colistin ([1]; A. baumannii ATCC 17978) | Potentiation fold (Escherichia coli CCUG^T; E. coli CCUG^T) | MIC in presence of colistin (Escherichia coli CCUG^T; E. coli CCUG^T) | Potentiation fold ([2]; K. pneumoniae ATCC 13833) | MIC in presence of colistin ([2]; K. pneumoniae ATCC 13833) | Average FIC index (K. pneumoniae ATCC 13833) | MIC [1, 9] | MIC (Escherichia coli CCUG^T; [10]) | MIC [2, 11] | MIC [3, 12] | MIC [4, 13] | MIC [5, 14] | MIC [6, 15] | also measured
CCCCCn1c(=O)c(C(=O)NC23CC4CC(CC(C4)C2)C3)c(O)c2nn(CCO)cc21 [In, N-(Adamantan-1-yl)-4,5-dihydro-7-hydroxy-2-(2-hydroxyethyl)-5-oxo-4-(1-pentyl)-2H-pyrazolo[4,3-b]pyridin-6-carboxamide] | ≥16 | 32 µg/mL | ≥8 | 64 µg/mL | ≥32 | 16 µg/mL | 0.32 |  |  |  |  |  |  |  | MIC [1]: > 512 µg/mL; MIC (Escherichia coli CCUG^T): > 512 µg/mL; MIC [2]: > 512 µg/mL
CCCCn1c2c(c(O)c(C(=O)NC34CC5CC(CC(C5)C3)C4)c1=O)N(CCO)NC2 [Ip, N-(Adamantan-1-yl)-4-(1-butyl)-4,5-dihydro-7-hydroxy-1-(2-hydroxyethyl)-5-oxo-2H-pyrazolo[4,3-b]pyridin-6-carboxamide] | ≥16 | 32 µg/mL | ≥16 | 32 µg/mL | ≥32 | 16 µg/mL | 0.32 | > 512 µg/mL | > 512 µg/mL | > 512 µg/mL |  |  |  |  | Average FIC index (E. coli CCUG^T): 0.33
CCCCn1c(=O)c(C(=O)NC2CCCCCCC2)c(O)c2nn(C)cc21 [Is, 4-(1-Butyl)-N-cyclooctyl-4,5-dihydro-7-hydroxy-2-methyl-5-oxo-2H-pyrazolo[4,3-b]pyridin-6-carboxamide] | ≥16 | 32 µg/mL | ≥16 | 32 µg/mL | ≥16 | 32 µg/mL |  | > 512 µg/mL | > 512 µg/mL | > 512 µg/mL | 32 µg/mL | 512 µg/mL | 32 µg/mL | 32 µg/mL | 
CCCCn1c(=O)c(C(=O)NC2CCCc3ccccc32)c(O)c2nn(C)cc21 (stereo not drawn) [It, 4-(1-Butyl)-4,5-dihydro-7-hydroxy-2-methyl-5-oxo-N-(1,2,3,4-tetrahydro-1-naphthyl)-2H-pyrazolo[4,3-b]pyridin-6-carboxamide] | ≥32 | 16 µg/mL | ≥16 | 32 µg/mL | ≥32 | 16 µg/mL |  | > 512 µg/mL | > 512 µg/mL | > 512 µg/mL | 32 µg/mL | 64 µg/mL | 32 µg/mL | 64 µg/mL | 
CC(C)n1c(=O)c(C(=O)NC23CC4CC(CC(C4)C2)C3)c(O)c2nn(C)cc21 [Ix, N-(Adamantan-1-yl)-4,5-dihydro-7-hydroxy-2-methyl-5-oxo-4-(2-propyl)-2H-pyrazolo[4,3-b]pyridin-6-carboxamide] | ≥64 | 8 µg/mL | ≥64 | 8 µg/mL | ≥64 | 8 µg/mL | 0.33 |  |  |  |  |  |  |  | MIC ([3]; ATCC6633): 64 µg/mL; MIC ([4]; ATCC29212): 32 µg/mL; MIC ([5]; ATCC25923): 128 µg/mL; MIC ([6]; ATCC12344): 32 µg/mL; MIC [1]: > 512 µg/mL; MIC (Escherichia coli CCUG^T): > 512 µg/mL; MIC [2]: > 512 µg/mL; Average FIC index (A. baumannii ATCC 17978): 0.27; Average FIC index (K. pneumoniae SI-4B): 0.39
CC(C)n1c(=O)c(C(=O)NC2CCCCCCC2)c(O)c2nn(C)cc21 [Iz, N-Cyclooctyl-4,5-dihydro-7-hydroxy-2-methyl-5-oxo-4-(2-propyl)-2H-pyrazolo[4,3-b]pyridin-6-carboxamide] | ≥64 | 8 µg/mL | ≥64 | 8 µg/mL | ≥32 | 16 µg/mL |  | > 512 µg/mL | > 512 µg/mL | > 512 µg/mL | 32 µg/mL | 64 µg/mL | 32 µg/mL | 16 µg/mL | 
CC[C@H](C)CCCCC(=O)N[C@@H](CCN)C(=O)N[C@H](C(=O)N[C@@H](CCN)C(=O)N[C@H]1CCNC(=O)[C@H]([C@@H](C)O)NC(=O)[C@H](CCN)NC(=O)[C@H](CCN)NC(=O)[C@H](CC(C)C)NC(=O)[C@@H](CC(C)C)NC(=O)[C@H](CCN)NC1=O)[C@@H](C)O [colistin, polymyxin E1, reference compound] (X1-[Dab]T[Dab][Dab][Dab][dL]L[Dab][Dab]T; lactam 4-C (inferred); N-terminus assumed) |  |  |  |  |  |  |  |  |  |  |  |  |  |  | colistin MIC ([1]; Acinetobacter baumannii ATCC 17978, colistin alone): 1 µg/mL; colistin MIC (Escherichia coli CCUG^T; Escherichia coli CCUG^T, colistin alone): 0.5 µg/mL; colistin MIC ([2]; Klebsiella pneumoniae ATCC 13833, colistin alone): 0.5 µg/mL; MIC Colistin [7]: 8 µg/mL; bactericidal activity (killing of the bacterial population) [8]: unable to achieve complete and irreversible killing of the bacterial population
